Data as given in ChEMBL document CHEMBL3045247, “GUANIDINES: FROM MOLECULE TO PRIMATE” (2004).

Key:
Set-up in all cases: scale not given: the % may be the effect or the level left
Papio ursinus [1] = experiment: Cardioprotective activity in Papio ursinus (baboon) ischaemic reperfusion injury model assessed as reduction of heart rate at 2 mg/kg, iv after 10 min relative to control; format: functional
Papio ursinus [2] = experiment: Cardioprotective activity in Papio ursinus (baboon) ischaemic reperfusion injury model assessed as reduction of heart rate at 1 mg/kg, iv after 4 min relative to control; format: functional
Papio ursinus [3] = experiment: Cardioprotective activity in Papio ursinus (baboon) ischaemic reperfusion injury model assessed as reduction of diastolic blood pressure at 1 mg/kg, iv after 10 min; format: functional, Artery
Papio ursinus [4] = experiment: Cardioprotective activity in Papio ursinus (baboon) ischaemic reperfusion injury model assessed as reduction of systolic blood pressure at 2 mg/kg, iv after 10 min; format: functional, Artery
Papio ursinus [5] = experiment: Cardioprotective activity in Papio ursinus (baboon) ischaemic reperfusion injury model assessed as reduction of systolic blood pressure at 1 mg/kg, iv after 10 min; format: functional, Artery
Papio ursinus [6] = experiment: Cardioprotective activity in Papio ursinus (baboon) ischaemic reperfusion injury model assessed as reduction of heart rate at 1 mg/kg, iv after 2 min relative to control; format: functional
Papio ursinus [7] = experiment: Cardioprotective activity in Papio ursinus (baboon) ischaemic reperfusion injury model assessed as reduction of diastolic blood pressure at 1 mg/kg, iv after 25 min; format: functional, Artery
Papio ursinus [8] = experiment: Cardioprotective activity in Papio ursinus (baboon) ischaemic reperfusion injury model assessed as reduction of heart rate at 2 mg/kg, iv after 4 min relative to control; format: functional
Papio ursinus [9] = experiment: Cardioprotective activity in Papio ursinus (baboon) ischaemic reperfusion injury model assessed as reduction of systolic blood pressure at 1 mg/kg, iv after 20 min; format: functional, Artery
Papio ursinus [10] = experiment: Cardioprotective activity in Papio ursinus (baboon) ischaemic reperfusion injury model assessed as reduction of heart rate at 1 mg/kg, iv after 15 min relative to control; format: functional
Papio ursinus [11] = experiment: Cardioprotective activity in Papio ursinus (baboon) ischaemic reperfusion injury model assessed as reduction of systolic blood pressure at 2 mg/kg, iv after 25 min; format: functional, Artery
Papio ursinus [12] = experiment: Cardioprotective activity in Papio ursinus (baboon) ischaemic reperfusion injury model assessed as reduction of systolic blood pressure at 1 mg/kg, iv after 15 min; format: functional, Artery
Papio ursinus [13] = experiment: Cardioprotective activity in Papio ursinus (baboon) ischaemic reperfusion injury model assessed as reduction of diastolic blood pressure at 1 mg/kg, iv after 6 min; format: functional, Artery
Papio ursinus [14] = experiment: Cardioprotective activity in Papio ursinus (baboon) ischaemic reperfusion injury model assessed as reduction of systolic blood pressure at 2 mg/kg, iv after 15 min; format: functional, Artery
Papio ursinus [15] = experiment: Cardioprotective activity in Papio ursinus (baboon) ischaemic reperfusion injury model assessed as reduction of systolic blood pressure at 2 mg/kg, iv after 4 min; format: functional, Artery
Papio ursinus [16] = experiment: Cardioprotective activity in Papio ursinus (baboon) ischaemic reperfusion injury model assessed as reduction of diastolic blood pressure at 2 mg/kg, iv after 15 min; format: functional, Artery
Papio ursinus [17] = experiment: Cardioprotective activity in Papio ursinus (baboon) ischaemic reperfusion injury model assessed as reduction of diastolic blood pressure at 2 mg/kg, iv after 2 min; format: functional, Artery
Papio ursinus [18] = experiment: Cardioprotective activity in Papio ursinus (baboon) ischaemic reperfusion injury model assessed as reduction of systolic blood pressure at 2 mg/kg, iv after 6 min; format: functional, Artery
Papio ursinus [19] = experiment: Cardioprotective activity in Papio ursinus (baboon) ischaemic reperfusion injury model assessed as reduction of heart rate at 2 mg/kg, iv after 25 min relative to control; format: functional
Papio ursinus [20] = experiment: Cardioprotective activity in Papio ursinus (baboon) ischaemic reperfusion injury model assessed as reduction of diastolic blood pressure at 1 mg/kg, iv after 15 min; format: functional, Artery
Papio ursinus [21] = experiment: Cardioprotective activity in Papio ursinus (baboon) ischaemic reperfusion injury model assessed as reduction of heart rate at 2 mg/kg, iv after 20 min relative to control; format: functional
Papio ursinus [22] = experiment: Cardioprotective activity in Papio ursinus (baboon) ischaemic reperfusion injury model assessed as reduction of diastolic blood pressure at 2 mg/kg, iv after 4 min; format: functional, Artery
Papio ursinus [23] = experiment: Cardioprotective activity in Papio ursinus (baboon) ischaemic reperfusion injury model assessed as reduction of systolic blood pressure at 1 mg/kg, iv after 4 min; format: functional, Artery
Papio ursinus [24] = experiment: Cardioprotective activity in Papio ursinus (baboon) ischaemic reperfusion injury model assessed as reduction of diastolic blood pressure at 2 mg/kg, iv after 10 min; format: functional, Artery
Papio ursinus [25] = experiment: Cardioprotective activity in Papio ursinus (baboon) ischaemic reperfusion injury model assessed as reduction of diastolic blood pressure at 2 mg/kg, iv after 25 min; format: functional, Artery
Papio ursinus [26] = experiment: Cardioprotective activity in Papio ursinus (baboon) ischaemic reperfusion injury model assessed as reduction of heart rate at 1 mg/kg, iv after 20 min relative to control; format: functional
Papio ursinus [27] = experiment: Cardioprotective activity in Papio ursinus (baboon) ischaemic reperfusion injury model assessed as reduction of systolic blood pressure at 1 mg/kg, iv after 6 min; format: functional, Artery
Papio ursinus [28] = experiment: Cardioprotective activity in Papio ursinus (baboon) ischaemic reperfusion injury model assessed as reduction of diastolic blood pressure at 2 mg/kg, iv after 6 min; format: functional, Artery
Papio ursinus [29] = experiment: Cardioprotective activity in Papio ursinus (baboon) ischaemic reperfusion injury model assessed as reduction of diastolic blood pressure at 2 mg/kg, iv after 20 min; format: functional, Artery
Papio ursinus [30] = experiment: Cardioprotective activity in Papio ursinus (baboon) ischaemic reperfusion injury model assessed as reduction of diastolic blood pressure at 1 mg/kg, iv after 2 min; format: functional, Artery
Papio ursinus [31] = experiment: Cardioprotective activity in Papio ursinus (baboon) ischaemic reperfusion injury model assessed as reduction of heart rate at 1 mg/kg, iv after 10 min relative to control; format: functional
Papio ursinus [32] = experiment: Cardioprotective activity in Papio ursinus (baboon) ischaemic reperfusion injury model assessed as reduction of diastolic blood pressure at 1 mg/kg, iv after 4 min; format: functional, Artery
Papio ursinus [33] = experiment: Cardioprotective activity in Papio ursinus (baboon) ischaemic reperfusion injury model assessed as reduction of heart rate at 2 mg/kg, iv after 6 min relative to control; format: functional
Papio ursinus [34] = experiment: Cardioprotective activity in Papio ursinus (baboon) ischaemic reperfusion injury model assessed as reduction of systolic blood pressure at 1 mg/kg, iv after 2 min; format: functional, Artery
Papio ursinus [35] = experiment: Cardioprotective activity in Papio ursinus (baboon) ischaemic reperfusion injury model assessed as reduction of systolic blood pressure at 2 mg/kg, iv after 2 min; format: functional, Artery
Papio ursinus [36] = experiment: Cardioprotective activity in Papio ursinus (baboon) ischaemic reperfusion injury model assessed as reduction of systolic blood pressure at 2 mg/kg, iv after 20 min; format: functional, Artery
Papio ursinus [37] = experiment: Cardioprotective activity in Papio ursinus (baboon) ischaemic reperfusion injury model assessed as reduction of systolic blood pressure at 1 mg/kg, iv after 25 min; format: functional, Artery
Papio ursinus [38] = experiment: Cardioprotective activity in Papio ursinus (baboon) ischaemic reperfusion injury model assessed as reduction of heart rate at 2 mg/kg, iv after 15 min relative to control; format: functional
Papio ursinus [39] = experiment: Cardioprotective activity in Papio ursinus (baboon) ischaemic reperfusion injury model assessed as reduction of heart rate at 1 mg/kg, iv after 6 min relative to control; format: functional
Papio ursinus [40] = experiment: Cardioprotective activity in Papio ursinus (baboon) ischaemic reperfusion injury model assessed as reduction of heart rate at 1 mg/kg, iv after 25 min relative to control; format: functional
Papio ursinus [41] = experiment: Cardioprotective activity in Papio ursinus (baboon) ischaemic reperfusion injury model assessed as reduction of diastolic blood pressure at 1 mg/kg, iv after 20 min; format: functional, Artery
Papio ursinus [42] = experiment: Cardioprotective activity in Papio ursinus (baboon) ischaemic reperfusion injury model assessed as reduction of heart rate at 2 mg/kg, iv after 2 min relative to control; format: functional

Compound `COc1ccc(/C=N/NC(=N)N)c(Cl)c1OC` has an Activity (Papio ursinus [1]) of 18.88%, an Activity (Papio ursinus [2]) of 10.77% and an Activity (Papio ursinus [3]) of 7.58%. For the same compound, the Activity (Papio ursinus [4]) was 7.45%, the Activity (Papio ursinus [5]) was 3.62% and the Activity (Papio ursinus [6]) was 5.33%. For the same compound, the Activity (Papio ursinus [7]) was 20.31%, the Activity (Papio ursinus [8]) was 17.1% and the Activity (Papio ursinus [9]) was 10.56%. It also gave an Activity (Papio ursinus [10]) of 15.47%, an Activity (Papio ursinus [11]) of 9.54% and an Activity (Papio ursinus [12]) of 9.36%. For the same compound, the Activity (Papio ursinus [13]) was 3.8%, the Activity (Papio ursinus [14]) was 6.84% and the Activity (Papio ursinus [15]) was 3.1%. For the same compound, the Activity (Papio ursinus [16]) was 2.2%, the Activity (Papio ursinus [17]) was 10.1% and the Activity (Papio ursinus [18]) was 5.72%. It also gave an Activity (Papio ursinus [19]) of 27.74%, an Activity (Papio ursinus [20]) of 15.16% and an Activity (Papio ursinus [21]) of 19.52%. For the same compound, the Activity (Papio ursinus [22]) was 4.24%, the Activity (Papio ursinus [23]) was 0.3% and the Activity (Papio ursinus [24]) was 1.02%. For the same compound, the Activity (Papio ursinus [25]) was 2.78%, the Activity (Papio ursinus [26]) was 15.6% and the Activity (Papio ursinus [27]) was 0.26%. For the same compound, the Activity (Papio ursinus [28]) was 1.78%, the Activity (Papio ursinus [29]) was 4.9% and the Activity (Papio ursinus [30]) was 0.02%. The Activity (Papio ursinus [31]) was 15.96%, the Activity (Papio ursinus [32]) was 2.67% and the Activity (Papio ursinus [33]) was 18.96%. The Activity (Papio ursinus [34]) was 0.02%, the Activity (Papio ursinus [35]) was 5.24% and the Activity (Papio ursinus [36]) was 8.48%. For the same compound, the Activity (Papio ursinus [37]) was 16.22%, the Activity (Papio ursinus [38]) was 19.68% and the Activity (Papio ursinus [39]) was 14.6%. The Activity (Papio ursinus [40]) was 18.28%, the Activity (Papio ursinus [41]) was 31.36% and the Activity (Papio ursinus [42]) was 12.95%.
